Source: US9809623B2, “α4β7 peptide monomer and dimer antagonists” (Protagonist Therapeutics, Inc., priority 2014, dated 2017)
Numbered stars: 1 amine (or outer) side, 2 acyl side, 3 side chain; on linkers, the order of the positions; unused ones are H or OH. Bridge positions count the residues as written; N and C are the ends. Square brackets hold non-standard residues; d marks the D form. Peptide text beside a SMILES is read from it. I, II: the chains in the order shown. * marks the point of attachment. Phe(4-tBu) = CC(C)(C)c1ccc(C[C@H](N)C(=O)O)cc1; 1Nal = N[C@@H](Cc1cccc2ccccc12)C(=O)O; 2Nal = N[C@@H](Cc1ccc2ccccc2c1)C(=O)O; Diglycolyl = O=C(COCC(=O)[*:2])[*:1]; NMeR = CN[C@@H](CCCNC(=N)N)C(=O)O; β3hE = N[C@@H](CCC(=O)O)CC(=O)O; Cha = N[C@@H](CC1CCCCC1)C(=O)O; Pen = CC(C)(S)[C@H](N)C(=O)O; Dap = NC[C@H](N)C(=O)O; Hexanoyl = CCCCCC(=O)*

Each molecule was assayed against α4β7 (Homo sapiens, UniProt P13612+P26010) (assay: α4β7-MAdCAM Cell Adhesion Assay (RPMI 8866 human cells)). Details: Table 3-B, Potency (α4β7); range classes; read-out: α4β7 cell (Hu) IC50.
Sequence of α4β7 (P13612 34-1032): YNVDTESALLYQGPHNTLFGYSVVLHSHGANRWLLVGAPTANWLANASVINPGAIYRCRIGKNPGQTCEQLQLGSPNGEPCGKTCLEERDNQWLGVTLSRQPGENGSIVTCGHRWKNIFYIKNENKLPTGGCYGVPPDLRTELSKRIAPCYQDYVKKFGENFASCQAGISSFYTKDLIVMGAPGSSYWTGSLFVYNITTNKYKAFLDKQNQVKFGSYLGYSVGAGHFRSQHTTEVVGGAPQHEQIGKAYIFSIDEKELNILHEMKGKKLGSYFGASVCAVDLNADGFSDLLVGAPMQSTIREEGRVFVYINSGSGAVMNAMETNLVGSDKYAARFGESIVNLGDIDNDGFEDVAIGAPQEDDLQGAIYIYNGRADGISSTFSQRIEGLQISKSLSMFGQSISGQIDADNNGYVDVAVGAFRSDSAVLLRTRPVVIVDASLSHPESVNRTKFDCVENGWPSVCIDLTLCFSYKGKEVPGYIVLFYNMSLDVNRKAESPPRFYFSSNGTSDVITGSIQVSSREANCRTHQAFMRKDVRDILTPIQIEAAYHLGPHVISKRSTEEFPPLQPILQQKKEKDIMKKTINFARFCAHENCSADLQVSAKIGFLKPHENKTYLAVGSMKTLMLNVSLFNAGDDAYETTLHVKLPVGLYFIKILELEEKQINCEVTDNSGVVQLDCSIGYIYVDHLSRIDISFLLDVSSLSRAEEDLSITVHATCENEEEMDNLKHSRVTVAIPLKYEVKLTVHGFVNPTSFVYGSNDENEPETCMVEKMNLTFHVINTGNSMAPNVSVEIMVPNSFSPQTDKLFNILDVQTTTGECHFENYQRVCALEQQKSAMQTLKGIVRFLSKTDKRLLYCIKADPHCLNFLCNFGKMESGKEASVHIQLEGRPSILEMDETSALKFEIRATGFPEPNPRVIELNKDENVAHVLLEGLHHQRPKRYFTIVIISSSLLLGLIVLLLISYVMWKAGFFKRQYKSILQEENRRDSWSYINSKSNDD
Sequence of α4β7 (P26010 20-798): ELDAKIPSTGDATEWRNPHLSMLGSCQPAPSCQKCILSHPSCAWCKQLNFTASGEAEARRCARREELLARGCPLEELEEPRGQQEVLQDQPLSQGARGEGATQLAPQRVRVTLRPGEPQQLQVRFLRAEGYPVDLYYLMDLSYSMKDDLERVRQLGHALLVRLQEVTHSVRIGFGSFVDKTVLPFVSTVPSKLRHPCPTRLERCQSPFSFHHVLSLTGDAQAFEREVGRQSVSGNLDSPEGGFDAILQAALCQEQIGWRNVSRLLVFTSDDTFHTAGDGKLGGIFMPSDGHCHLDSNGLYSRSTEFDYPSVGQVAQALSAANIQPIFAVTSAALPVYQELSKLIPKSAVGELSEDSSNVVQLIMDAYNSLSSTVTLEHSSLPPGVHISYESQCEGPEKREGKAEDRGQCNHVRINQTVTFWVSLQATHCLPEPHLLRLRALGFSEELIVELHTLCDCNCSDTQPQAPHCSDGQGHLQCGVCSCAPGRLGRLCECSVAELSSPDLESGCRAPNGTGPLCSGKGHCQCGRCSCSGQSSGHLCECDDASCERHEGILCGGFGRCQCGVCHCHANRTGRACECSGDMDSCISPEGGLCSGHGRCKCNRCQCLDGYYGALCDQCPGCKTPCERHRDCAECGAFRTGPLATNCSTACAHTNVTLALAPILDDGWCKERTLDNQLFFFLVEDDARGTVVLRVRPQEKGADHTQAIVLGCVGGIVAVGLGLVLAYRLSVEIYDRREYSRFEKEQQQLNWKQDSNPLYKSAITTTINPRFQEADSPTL
Format: cell-based
Design: host or cells: RPMI 8866 human B lymphoblastoid cells
Outline: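 Washed RPMI 8866 cells (200,000/well) in DMEM with 0.1% BSA, 10 mM HEPES pH 7, 1 mM MnCl2 adhered to rh MAdCAM-1/Fc-coated wells with serially diluted peptides, 30-45 min at 37 °C. After three washes, bound cells quantified by MTT, A570, cell-free background subtracted for dose response.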
`CC(=O)N[C@@H]1C(=O)N(C)[C@@H](CCCNC(=N)N)C(=O)N[C@@H](CO)C(=O)N[C@@H](CC(=O)O)C(=O)N[C@@H]([C@@H](C)O)C(=O)N[C@@H](CCC(N)=O)C(=O)N[C@H](C(=O)N[C@@H](Cc2ccc(C(C)(C)C)cc2)C(=O)N[C@@H](CCC(=O)O)CC(=O)N[C@H](CCCCNC(=O)CN(CC(=O)NCCCC[C@@H](NC(=O)C[C@H](CCC(=O)O)NC(=O)[C@H](Cc2ccc(C(C)(C)C)cc2)NC(=O)[C@H]2NC(=O)[C@H](CCC(N)=O)NC(=O)[C@H]([C@@H](C)O)NC(=O)[C@H](CC(=O)O)NC(=O)[C@H](CO)NC(=O)[C@H](CCCNC(=N)N)N(C)C(=O)[C@@H](NC(C)=O)C(C)(C)SSC2(C)C)C(N)=O)C(=O)CCN)C(N)=O)C(C)(C)SSC1(C)C` [compound 187] was tested, and the IC50 was 100 to 500 nM. Work on `CC(=O)N[C@@H]1C(=O)N(C)[C@@H](CCCNC(=N)N)C(=O)N[C@@H](CO)C(=O)N[C@@H](CC(=O)O)C(=O)N[C@@H]([C@@H](C)O)C(=O)N[C@@H](CC(C)C)C(=O)N[C@H](C(=O)N[C@@H](Cc2ccc3ccccc3c2)C(=O)N[C@H](Cc2ccccc2)C(=O)N[C@H](CCCCNC(=O)COCC(=O)NCCCC[C@@H](NC(=O)[C@@H](Cc2ccccc2)NC(=O)[C@H](Cc2ccc3ccccc3c2)NC(=O)[C@H]2NC(=O)[C@H](CC(C)C)NC(=O)[C@H]([C@@H](C)O)NC(=O)[C@H](CC(=O)O)NC(=O)[C@H](CO)NC(=O)[C@H](CCCNC(=N)N)N(C)C(=O)[C@@H](NC(C)=O)C(C)(C)SSC2(C)C)C(N)=O)C(N)=O)C(C)(C)SSC1(C)C` [compound 117] (I: Ac-[Pen][NMeR]SDTL[Pen][2Nal][dF][dK]-NH2 / II: Ac-[Pen][NMeR]SDTL[Pen][2Nal][dF][dK]-NH2; disulfide I:1-I:7, II:1-II:7; linker I:10-II:10 via Diglycolyl) yielded an IC50 of 100 to 500 nM. With `CC(=O)N[C@@H]1C(=O)N(C)[C@@H](CCCNC(=N)N)C(=O)N[C@@H](CO)C(=O)N[C@@H](CC(=O)O)C(=O)N[C@@H]([C@@H](C)O)C(=O)N[C@@H](CC(C)C)C(=O)N[C@H](C(=O)N[C@@H](Cc2ccc3ccccc3c2)C(=O)N[C@H](Cc2c[nH]cn2)C(=O)N[C@H](CCCCNC(=O)COCC(=O)NCCCC[C@@H](NC(=O)[C@@H](Cc2c[nH]cn2)NC(=O)[C@H](Cc2ccc3ccccc3c2)NC(=O)[C@H]2NC(=O)[C@H](CC(C)C)NC(=O)[C@H]([C@@H](C)O)NC(=O)[C@H](CC(=O)O)NC(=O)[C@H](CO)NC(=O)[C@H](CCCNC(=N)N)N(C)C(=O)[C@@H](NC(C)=O)C(C)(C)SSC2(C)C)C(N)=O)C(N)=O)C(C)(C)SSC1(C)C` [compound 118] (I: Ac-[Pen][NMeR]SDTL[Pen][2Nal][dH][dK]-NH2 / II: Ac-[Pen][NMeR]SDTL[Pen][2Nal][dH][dK]-NH2; disulfide I:1-I:7, II:1-II:7; linker I:10-II:10 via Diglycolyl) the IC50 was 25 to 50 nM. `CC(=O)N[C@@H]1C(=O)N(C)[C@@H](CCCNC(=N)N)C(=O)N[C@@H](CO)C(=O)N[C@@H](CC(=O)O)C(=O)N[C@@H](CC2CCCCC2)C(=O)N[C@@H](CC(C)C)C(=O)N[C@H](C(=O)N[C@@H](Cc2ccc3ccccc3c2)C(=O)N[C@H](CCC(=O)O)C(N)=O)C(C)(C)SSC1(C)C` [compound 158] (Ac-[Pen][NMeR]SD[Cha]L[Pen][2Nal][dE]-NH2; disulfide 1-7) gave an IC50 of 1000 to 10000 nM. In the case of `CC(=O)N[C@@H]1C(=O)N(C)[C@@H](CCCNC(=N)N)C(=O)N[C@@H](CO)C(=O)N[C@@H](CC(=O)O)C(=O)N[C@@H]([C@@H](C)O)C(=O)N[C@@H](CC(C)C)C(=O)N[C@H](C(=O)N[C@@H](Cc2cccc3ccccc23)C(=O)N[C@H](CC(C)C)C(=O)N[C@H](CCCCNC(=O)COCC(=O)NCCCC[C@@H](NC(=O)[C@@H](CC(C)C)NC(=O)[C@H](Cc2cccc3ccccc23)NC(=O)[C@H]2NC(=O)[C@H](CC(C)C)NC(=O)[C@H]([C@@H](C)O)NC(=O)[C@H](CC(=O)O)NC(=O)[C@H](CO)NC(=O)[C@H](CCCNC(=N)N)N(C)C(=O)[C@@H](NC(C)=O)C(C)(C)SSC2(C)C)C(N)=O)C(N)=O)C(C)(C)SSC1(C)C` [compound 113] (I: Ac-[Pen][NMeR]SDTL[Pen][1Nal][dL][dK]-NH2 / II: Ac-[Pen][NMeR]SDTL[Pen][1Nal][dL][dK]-NH2; disulfide I:1-I:7, II:1-II:7; linker I:10-II:10 via Diglycolyl), the IC50 is reported as 500 to 1000 nM. Molecule `CC(=O)N[C@@H]1C(=O)N(C)[C@@H](CCCNC(=N)N)C(=O)N[C@@H](CO)C(=O)N[C@@H](CC(=O)O)C(=O)N[C@@H]([C@@H](C)O)C(=O)N[C@@H](CC(C)C)C(=O)N[C@H](C(=O)N[C@@H](Cc2c[nH]c3ccccc23)C(=O)N[C@@H](CCC(=O)O)C(=O)N[C@@H](CN)C(N)=O)C(C)(C)SSC1(C)C` [compound 59] (Ac-[Pen][NMeR]SDTL[Pen]WE[Dap]-NH2; disulfide 1-7) has an IC50 of 10000 to 100000 nM. Work on `CCCCCC(=O)N[C@@H]1C(=O)N(C)[C@@H](CCCNC(=N)N)C(=O)N[C@@H](CO)C(=O)N[C@@H](CC(=O)O)C(=O)N[C@@H]([C@@H](C)O)C(=O)N[C@@H](CC(C)C)C(=O)N[C@H](C(=O)N[C@@H](Cc2ccc(C(C)(C)C)cc2)C(=O)N[C@@H](CCC(=O)O)CC(=O)N[C@H](CCCCN)C(N)=O)C(C)(C)SSC1(C)C` [compound 176] (Hexanoyl-[Pen][NMeR]SDTL[Pen][Phe(4-tBu)][β3hE][dK]-NH2; disulfide 1-7) yielded an IC50 of 50 to 100 nM. `CC[C@H](C)[C@@H]1NC(=O)[C@H](CC(=O)O)NC(=O)[C@H](CO)NC(=O)[C@H](CCCNC(=N)N)N(C)C(=O)[C@@H](NC(C)=O)C(C)(C)SSC(C)(C)[C@@H](C(=O)N[C@@H](Cc2ccc3ccccc3c2)C(=O)N[C@H](CCC(=O)O)C(N)=O)NC(=O)[C@H](CC(C)C)NC1=O` [compound 160] (Ac-[Pen][NMeR]SDIL[Pen][2Nal][dE]-NH2; disulfide 1-7) gave an IC50 of 1000 to 10000 nM. `CC(=O)N[C@@H]1C(=O)N(C)[C@@H](CCCNC(=N)N)C(=O)N[C@@H](CO)C(=O)N[C@@H](CC(=O)O)C(=O)N[C@@H]([C@@H](C)O)C(=O)N[C@@H](CC(C)C)C(=O)N[C@H](C(=O)N[C@@H](Cc2ccc(C(C)(C)C)cc2)C(=O)N[C@H](CCC(=O)O)C(=O)N[C@H](CCCCNC(=O)COCC(=O)NCCCC[C@@H](NC(=O)[C@@H](CCC(=O)O)NC(=O)[C@H](Cc2ccc(C(C)(C)C)cc2)NC(=O)[C@H]2NC(=O)[C@H](CC(C)C)NC(=O)[C@H]([C@@H](C)O)NC(=O)[C@H](CC(=O)O)NC(=O)[C@H](CO)NC(=O)[C@H](CCCNC(=N)N)N(C)C(=O)[C@@H](NC(C)=O)C(C)(C)SSC2(C)C)C(N)=O)C(N)=O)C(C)(C)SSC1(C)C` [compound 106] (I: Ac-[Pen][NMeR]SDTL[Pen][Phe(4-tBu)][dE][dK]-NH2 / II: Ac-[Pen][NMeR]SDTL[Pen][Phe(4-tBu)][dE][dK]-NH2; disulfide I:1-I:7, II:1-II:7; linker I:10-II:10 via Diglycolyl) gave an IC50 of under 10 nM. `CC(=O)N[C@@H]1C(=O)N(C)[C@@H](CCCNC(=N)N)C(=O)N[C@@H](CO)C(=O)N[C@@H](CC(=O)O)C(=O)N[C@@H]([C@@H](C)O)C(=O)N[C@@H](CC(C)C)C(=O)N[C@H](C(=O)N[C@@H](Cc2ccc3ccccc3c2)C(=O)N[C@@H](CCC(=O)O)C(N)=O)C(C)(C)SSC1(C)C` [compound 75] (Ac-[Pen][NMeR]SDTL[Pen][2Nal]E-NH2; disulfide 1-7) gave an IC50 of 50 to 100 nM.
